In US20250140406A1, “CLASSIFYING TUMORS AND PREDICTING RESPONSIVENESS” (Oncocyte Corporation, priority 2022, published 2025):

What was measured:
[1] = system: cancer cell lines classified IM, MSL, M; assay: PRISM screen compound sensitivity correlated with IM, MSL and M subtype of cell lines (101 gene signature); type: cell-based; settings: for IM Corr test: correlation of PRISM compound sensitivity with IM subtype correlation; for M Corr test: correlation of PRISM compound sensitivity with M subtype correlation; for MSL Corr test: correlation of PRISM compound sensitivity with MSL subtype correlation; for TNBCType train: 101 gene signature
[2] = system: cancer cell lines, DetermaIO classes; assay: Association of PRISM compound sensitivity with DetermaIO (DTIO) cell line classes; type: cell-based
[3] = correlation of PRISM compound sensitivity with DTIO; test cell set
[4] = correlation of PRISM compound sensitivity with DTIO; training cell set
[5] = correlation of PRISM compound sensitivity with DTIO (DetermaIO); test cell set (188 cell lines)
[6] = correlation of PRISM compound sensitivity with DTIO (DetermaIO); training cell set (371 cell lines)
[7] = correlation of compound sensitivity with DetermaIO (DTIO), test set
[8] = correlation of compound sensitivity with DetermaIO (DTIO), training set
[9] = correlation of compound sensitivity with DetermaIO (DTIO); test set
[10] = correlation of compound sensitivity with DetermaIO (DTIO); training set
[11] = correlation of PRISM compound sensitivity with DTIO; test cell set (188 cell lines)
[12] = correlation of PRISM compound sensitivity with DTIO; training cell set (371 cell lines)

Cl.NC1CCN(c2cccc(Cl)n2)CC1 [SR-57227A]
IM Corr test ([1]; test cell set (188 cell lines)): −0.02879
M Corr test ([1]; test cell set (188 cell lines)): −0.08168
MSL Corr test ([1]; test cell set (188 cell lines)): −0.00449
DTIO Corr test [2, 3]: 0.01635
DTIO Corr train [2, 4]: −0.1048

Cc1nc(-c2cccnc2)sc1C(=O)Nc1ccccc1-c1cn2c(CN3CCOCC3)csc2n1 [SRT2104]
IM Corr test ([1]; test cell set): −0.05657
M Corr test ([1]; test cell set): 0.06965
MSL Corr test ([1]; test cell set): −0.08685
TNBCType train ([1]; subtype (IM, MSL or M) with which PRISM compound sensitivity is negatively correlated, training cell set): MSL
DTIO Corr test [2, 3]: −0.05596
DTIO Corr train [2, 4]: −0.07665

C[C@H](C[C@H](N)C(=O)O)C(=O)O [SYM-2081]
IM Corr test ([1]; test cell set (188 cell lines)): −0.08842
M Corr test ([1]; test cell set (188 cell lines)): 0.01603
MSL Corr test ([1]; test cell set (188 cell lines)): 0.05746
DTIO Corr test [2, 5]: −0.1311
DTIO Corr train [2, 6]: −0.0674

CC(C)(O)CC(=O)NCCn1ccc2ncnc(Nc3ccc(Oc4cccc(C(F)(F)F)c4)c(Cl)c3)c21 [TAK-285]
IM Corr test ([1]; test cell set (188 cell lines)): −0.1598
M Corr test ([1]; test cell set (188 cell lines)): 0.2221
MSL Corr test ([1]; test cell set (188 cell lines)): 0.1785
DTIO Corr test [2, 5]: −0.06872
DTIO Corr train [2, 6]: −0.07158
DTIO Corr test ([2]; correlation of compound sensitivity with DTIO; test set): −0.06872
DTIO Corr train ([2]; correlation of compound sensitivity with DTIO; training set): −0.07158

N#Cc1c(Oc2ccc(F)c(NC(=O)Cc3cccc(C(F)(F)F)c3)c2)ccc2nc(NC(=O)C3CC3)sc12 [TAK-632]
IM Corr test ([1]; test cell set): 0.3042
M Corr test ([1]; test cell set): −0.2709
MSL Corr test ([1]; test cell set): 0.04709
DTIO Corr test [2, 3]: 0.2089
DTIO Corr train [2, 4]: 0.08489
DTIO Corr test [2, 7]: 0.2089
DTIO Corr train [2, 8]: 0.08489
DTIO Corr test [2, 9]: 0.2089
DTIO Corr train [2, 10]: 0.08489

Cc1cc(OCCCS(C)(=O)=O)cc(C)c1-c1cccc(COc2ccc3c(c2)OC[C@H]3CC(=O)O)c1 [TAK-875]
IM Corr test ([1]; test cell set (188 cell lines)): 0.00946
M Corr test ([1]; test cell set (188 cell lines)): −0.00346
MSL Corr test ([1]; test cell set (188 cell lines)): −0.00217
TNBCType train ([1]; subtype (IM, MSL or M) assigned to the compound by negative correlation of PRISM sensitivity with subtype, training cell set (371 cell lines)): MSL
DTIO Corr test [2, 5]: −0.03291
DTIO Corr train [2, 6]: 0.03182

CCN1/C(=C/C(C)=O)Sc2ccc(OC)cc21 [TG-003]
IM Corr test ([1]; test cell set (188 cell lines)): −0.1049
M Corr test ([1]; test cell set (188 cell lines)): 0.03396
MSL Corr test ([1]; test cell set (188 cell lines)): −0.1032
TNBCType train ([1]; subtype (IM, MSL or M) the PRISM compound sensitivity is associated with, training cell set (371 cell lines)): MSL
DTIO Corr test [2, 11]: −0.05387
DTIO Corr train [2, 12]: −0.04255

Cc1cc(-c2cc(O)ccc2Cl)cc2nnc(Nc3ccc(OCCN4CCCC4)cc3)nc12 [TG-100572]
IM Corr test ([1]; test cell set (188 cell lines)): 0.01392
M Corr test ([1]; test cell set (188 cell lines)): −0.05751
MSL Corr test ([1]; test cell set (188 cell lines)): −0.04088
TNBCType train ([1]; subtype (IM, MSL or M) with which compound sensitivity is negatively correlated, training cell set (371 cell lines)): MSL
DTIO Corr test [2, 3]: 0.03221
DTIO Corr train [2, 4]: 0.09048

Nc1cccc(-c2cc3c(Oc4cccc(O)c4)ncnc3[nH]2)c1 [TWS-119]
IM Corr test ([1]; test cell set (188 cell lines)): −0.02666
M Corr test ([1]; test cell set (188 cell lines)): 0.00573
MSL Corr test ([1]; test cell set (188 cell lines)): 0.1335
DTIO Corr test [2, 11]: −0.03964
DTIO Corr train [2, 12]: −0.1606

CC(C)C(=O)c1ccc(O)c(O)c1 [U-0521]
IM Corr test ([1]; test cell set (188 cell lines)): −0.0012
M Corr test ([1]; test cell set (188 cell lines)): 0.02749
MSL Corr test ([1]; test cell set (188 cell lines)): 0.06256
DTIO Corr test [2, 3]: −0.01537
DTIO Corr train [2, 4]: −0.1115

c1ccc(C(NCc2cccnc2)(c2ccccc2)c2ccccc2)cc1 [UCL-2077]
IM Corr test ([1]; test cell set): −0.1051
M Corr test ([1]; test cell set): 0.08781
MSL Corr test ([1]; test cell set): 0.1128
DTIO Corr test [2, 3]: −0.07511
DTIO Corr train [2, 4]: −0.2006

CCCN(CCC)[C@@H]1CCc2c(OC)cccc2[C@@H]1C [UH-232-(+)]
IM Corr test ([1]; test cell set (188 cell lines)): −0.1006
M Corr test ([1]; test cell set (188 cell lines)): 0.08495
MSL Corr test ([1]; test cell set (188 cell lines)): 0.1169
DTIO Corr test [2, 5]: −0.1146
DTIO Corr train [2, 6]: −0.08225

CN(C)CCN1C(=O)c2cccc3cc(NC(N)=O)cc(c23)C1=O [UNBS-5162]
IM Corr test ([1]; test cell set): 0.1623
M Corr test ([1]; test cell set): −0.2029
MSL Corr test ([1]; test cell set): −0.03433
DTIO Corr test [2, 3]: 0.09148
DTIO Corr train [2, 4]: 0.09844
DTIO Corr test [2, 9]: 0.09148
DTIO Corr train [2, 10]: 0.09844

COc1cc2c(NC3CCN(CC4CCCCC4)CC3)nc(N3CCCN(C(C)C)CC3)nc2cc1OCCCN1CCCCC1 [UNC0631]
IM Corr test ([1]; test cell set (188 cell lines)): 0.2168
M Corr test ([1]; test cell set (188 cell lines)): −0.3256
MSL Corr test ([1]; test cell set (188 cell lines)): −0.09072
DTIO Corr test [2, 3]: 0.163
DTIO Corr train [2, 4]: 0.1055
DTIO Corr test [2, 7]: 0.163
DTIO Corr train [2, 8]: 0.1055

COc1cc2c(NC3CCN(C(C)C)CC3)nc(C3CCCCC3)nc2cc1OCCCN1CCCC1 [UNC0638]
IM Corr test ([1]; test cell set (188 cell lines)): −0.1264
M Corr test ([1]; test cell set (188 cell lines)): 0.1332
MSL Corr test ([1]; test cell set (188 cell lines)): 0.1697
DTIO Corr test [2, 5]: −0.08839
DTIO Corr train [2, 6]: −0.07586
